Experimental data reported in PubChem BioAssay (NCI).
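These data come from cells grown in 96-well plates and exposed to compound for 48 hours at five concentrations. Definition used: TGI = concentration required for complete inhibition of growth.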

Columns and labels:
Assay in all cases: NCI-60 cell line screen, 48 h
[1] = test system: TK-10 renal
[2] = test system: T-47D breast
[3] = test system: OVCAR-4 ovarian
[4] = test system: CAKI-1 renal
[5] = test system: A498 renal
[6] = test system: EKVX NSCLC
[7] = test system: HCC-2998 colon
[8] = test system: SN12C renal
[9] = test system: K-562 leukemia
[10] = test system: NCI-H226 lung
[11] = test system: MALME-3M melanoma
[12] = test system: IGROV1 ovarian
[13] = test system: A549 NSCLC
[14] = test system: SNB-75 CNS
[15] = test system: COLO 205 colon
[16] = test system: OVCAR-5 ovarian
[17] = test system: BT-549 breast
[18] = test system: U251 CNS
[19] = test system: SK-MEL-2 melanoma
[20] = test system: HOP-62 NSCLC
[21] = test system: PC-3 prostate
[22] = test system: KM12 colon
[23] = test system: MDA-MB-435
[24] = test system: NCI/ADR-RES ovarian
[25] = test system: ACHN renal
[26] = test system: OVCAR-3 ovarian
[27] = test system: 786-0 renal
[28] = test system: DU-145 prostate
[29] = test system: MOLT-4 leukemia
[30] = test system: HL-60(TB) leukemia
[31] = test system: HCT-116 colon
[32] = test system: M14 melanoma
[33] = test system: SF-268 CNS
[34] = test system: NCI-H23 lung
[35] = test system: NCI-H522 lung
[36] = test system: RPMI-8226 leukemia
[37] = test system: RXF 393 renal
[38] = test system: HS 578T breast
[39] = test system: SNB-19 CNS
[40] = test system: SR leukemia
[41] = test system: HT29 colon
[42] = test system: LOX IMVI melanoma
[43] = test system: CCRF-CEM leukemia
[44] = test system: SF-295 CNS
[45] = test system: UACC-62 melanoma
[46] = test system: SK-MEL-5 melanoma
[47] = test system: MDA-N
[48] = test system: MDA-MB-231 breast
[49] = test system: SW-620 colon
[50] = test system: SK-OV-3 ovarian
[51] = test system: SK-MEL-28 melanoma
[52] = test system: NCI-H460 lung
[53] = test system: SF-539 CNS
[54] = test system: MCF7 breast
[55] = test system: UACC-257 melanoma
[56] = test system: OVCAR-8 ovarian
[57] = test system: HCT-15 colon
[58] = test system: HOP-92 NSCLC
[59] = test system: UO-31 renal

For O=[N+]([O-])c1ccc(C2ON=C(c3ccccc3)N2C23CC4CC(CC(C4)C2)C3)cc1 (configuration not stated), the TGI [1] was over 10 µM, the TGI [2] was over 10 µM and the TGI [3] was over 10 µM. For the same compound, the TGI [4] was over 10 µM, the TGI [5] was over 10 µM and the TGI [6] was over 10 µM. For the same compound, the TGI [7] was over 10 µM, the TGI [8] was over 10 µM and the TGI [9] was over 10 µM. For the same compound, the TGI [10] was over 10 µM, the TGI [11] was over 10 µM and the TGI [12] was over 10 µM. It also gave a TGI [13] of over 10 µM, a TGI [14] of over 10 µM and a TGI [15] of over 10 µM. For the same compound, the TGI [16] was over 10 µM, the TGI [17] was over 10 µM and the TGI [18] was over 10 µM. For the same compound, the TGI [19] was over 10 µM, the TGI [20] was over 10 µM and the TGI [21] was over 10 µM. It also gave a TGI [22] of over 10 µM, a TGI [23] of over 10 µM and a TGI [24] of over 10 µM. For the same compound, the TGI [25] was over 10 µM, the TGI [26] was over 10 µM and the TGI [27] was over 10 µM. For the same compound, the TGI [28] was over 10 µM, the TGI [29] was over 10 µM and the TGI [30] was over 10 µM. For the same compound, the TGI [31] was over 10 µM, the TGI [32] was over 10 µM and the TGI [33] was over 10 µM. The TGI [34] was over 10 µM, the TGI [35] was over 10 µM and the TGI [36] was over 10 µM. For the same compound, the TGI [37] was over 10 µM, the TGI [38] was over 10 µM and the TGI [39] was over 10 µM. The TGI [40] was over 10 µM, the TGI [41] was over 10 µM and the TGI [42] was over 10 µM. The TGI [43] was over 10 µM, the TGI [44] was over 10 µM and the TGI [45] was over 10 µM. For the same compound, the TGI [46] was over 10 µM, the TGI [47] was over 10 µM and the TGI [48] was over 10 µM. It also gave a TGI [49] of over 10 µM, a TGI [50] of over 10 µM and a TGI [51] of over 10 µM. It also gave a TGI [52] of over 10 µM, a TGI [53] of over 10 µM and a TGI [54] of over 10 µM. For the same compound, the TGI [55] was over 10 µM, the TGI [56] was over 10 µM and the TGI [57] was over 10 µM. It also gave a TGI [58] of over 10 µM.

N#Cc1c(Cl)c2cccnc2n2c1nc1ccccc12 gave a TGI [1] of 3.09 µM, a TGI [2] of 4.79 µM and a TGI [3] of 5.29 µM. The TGI [4] was 3.71 µM, the TGI [5] was 31.1 µM and the TGI [6] was 14.9 µM. The TGI [7] was 10.7 µM, the TGI [8] was 3.7 µM and the TGI [9] was 6.05 µM. The TGI [10] was 9.58 µM, the TGI [11] was 3.28 µM and the TGI [12] was 4.94 µM. The TGI [59] was 3.33 µM, the TGI [13] was 18.6 µM and the TGI [14] was 15.4 µM. For the same compound, the TGI [15] was 4.02 µM, the TGI [16] was 44.8 µM and the TGI [17] was 9.28 µM. For the same compound, the TGI [18] was 10.3 µM, the TGI [19] was 23.3 µM and the TGI [20] was over 56.1 µM. The TGI [21] was 6.23 µM, the TGI [22] was 20.3 µM and the TGI [23] was 13.5 µM. For the same compound, the TGI [24] was 6.55 µM, the TGI [25] was 3.2 µM and the TGI [26] was 9.6 µM. It also gave a TGI [27] of 3.27 µM, a TGI [28] of 4.03 µM and a TGI [29] of 6.15 µM. It also gave a TGI [30] of 3.78 µM, a TGI [31] of 3.19 µM and a TGI [32] of over 21.4 µM. The TGI [33] was 8.4 µM, the TGI [34] was 4.28 µM and the TGI [35] was 2.68 µM. It also gave a TGI [36] of 5.67 µM, a TGI [37] of 3.44 µM and a TGI [38] of 10.5 µM. It also gave a TGI [39] of 38.5 µM, a TGI [40] of 5.83 µM and a TGI [41] of 3.61 µM. It also gave a TGI [42] of 3.51 µM, a TGI [43] of 4.02 µM and a TGI [44] of 35.9 µM. The TGI [45] was 9.1 µM, the TGI [46] was 2.6 µM and the TGI [47] was 15.7 µM. For the same compound, the TGI [48] was 5.38 µM, the TGI [49] was 4.59 µM and the TGI [50] was 30 µM. It also gave a TGI [51] of 9.75 µM, a TGI [52] of 19.6 µM and a TGI [53] of 5.4 µM. The TGI [54] was over 25.1 µM, the TGI [55] was 7.5 µM and the TGI [56] was 3.77 µM. For the same compound, the TGI [57] was 3.82 µM and the TGI [58] was 3.91 µM.
